# Laboratory results published in patent US20250082720A1, “NEW PEPTIDE AND USES THEREOF” (Neo Cremar Co., Ltd., priority 2021, published 2025).
# What was measured:
# C2C12 cells = experiment: Myodifferentiation: root canal formation and fusion index (Giemsa staining); type: cell-based, mouse; conditions: 3 days
# Description: When C2C12 cells were 70% grown, media were replaced with myodifferentiation medium added with MSTN protein (1 ng), Ac-MIF2-NH2 (1000 nM), and Ac-MIF2-NH2 (1000 nM)+MSTN protein (1 ng) from proliferation medium, followed by culture for 3 days.
# When the cells grew more than 70% for differentiation of myoblasts into myocytes, they were cultured for 3 days by replacing with a differentiation medium (DMEM+2% FBS+1% P/S). The medium was replaced once daily, and the cells were cultured at 37° C.
# The cell medium was removed, and the cells were washed with PBS. After washing, a methanol: PBS reagent in a 1:1 volume ratio was treated, followed by fixation for 2 minutes. Additionally, after a methanol: PBS reagent in a 2:1 volume ratio was added, fixation was followed for additional 2 minutes. After 2 minutes, 0.04% Giemsa reagent was added, and then the cells were left for 30 minutes, washed with PBS after 30 minutes, and observed under a microscope, with 3 photographs taken for each cell (300×). In the photographs taken, the number of fused nuclei in the root canal cells was counted, the number of nuclei of total cells was counted, and the number of fused nuclei was divided by the number of nuclei of the total cells to obtain the % value.
# 3T3L1 cells = experiment: Adipodifferentiation of 3T3L1 cells (Oil Red O staining); type: cell-based, mouse; conditions: 3T3L1, adipocyte differentiation medium, 4 days, FIG. 13B
# Description: For differentiation of 3T3L1 cells into adipocytes, when the cells grew about 100% or more, they were replaced with differentiation medium (DMEM+10% FBS+1% P/S+10 μg/ml insulin+1 μM dexametazone+0.5 μM IBMX (3-isobutyl-1-methylxanthine)) and cultured for 2 days. After 2 days, MIF peptide was treated in a medium including 10 μg/ml insulin to induce cell differentiation.
# 3T3L1 cells were treated with peptides and differentiated for 4 days, then the medium was removed, and the cells were washed with normal saline, treated with 10% formaldehyde, and left for 10 minutes. After 10 minutes, Oil-red O staining agents (6 ([…] Oil-red O reagent+1 ml 100% isopropanol): 4 (distilled water)) were treated and left for 1 hour. After 1 hour, cells were washed with normal saline and then observed under a microscope. To measure the Oil-red O stained in the intracellularly differentiated cells, 100% isopropanol was added and collected, followed by measurement at 510 nm.
substance,measurement,setting,value
"Ac-VDFEAGDWFW-NH2 [Ac-MIF2-NH2, MIF2 peptide with acetylated N-terminus and amidated C-terminus]",increase in fusion index compared to untreated cells,"C2C12 cells; C2C12, differentiation medium with peptide",14%
same,root canal formation compared to untreated cells,"C2C12 cells; C2C12, differentiation medium",increased
same,fusion index compared to untreated cells,"C2C12 cells; C2C12, myodifferentiation medium, FIG. 9",increased
same,decrease in fat accumulation (Oil-red O intensity) compared to cells without peptide treatment,3T3L1 cells,9%
